# Laboratory results published in BindingDB's records for doi:10.1021/jm00119a018 (Southern Research Institute, 1988).
# Target: Bifunctional purine biosynthesis protein ATIC (Homo sapiens, UniProt P31939)
# Assay: ChEBML_28408
# Method: Compound was tested for inhibition of AICAR formyltransferase
# Sequence of Bifunctional purine biosynthesis protein ATIC (P31939 whole entry): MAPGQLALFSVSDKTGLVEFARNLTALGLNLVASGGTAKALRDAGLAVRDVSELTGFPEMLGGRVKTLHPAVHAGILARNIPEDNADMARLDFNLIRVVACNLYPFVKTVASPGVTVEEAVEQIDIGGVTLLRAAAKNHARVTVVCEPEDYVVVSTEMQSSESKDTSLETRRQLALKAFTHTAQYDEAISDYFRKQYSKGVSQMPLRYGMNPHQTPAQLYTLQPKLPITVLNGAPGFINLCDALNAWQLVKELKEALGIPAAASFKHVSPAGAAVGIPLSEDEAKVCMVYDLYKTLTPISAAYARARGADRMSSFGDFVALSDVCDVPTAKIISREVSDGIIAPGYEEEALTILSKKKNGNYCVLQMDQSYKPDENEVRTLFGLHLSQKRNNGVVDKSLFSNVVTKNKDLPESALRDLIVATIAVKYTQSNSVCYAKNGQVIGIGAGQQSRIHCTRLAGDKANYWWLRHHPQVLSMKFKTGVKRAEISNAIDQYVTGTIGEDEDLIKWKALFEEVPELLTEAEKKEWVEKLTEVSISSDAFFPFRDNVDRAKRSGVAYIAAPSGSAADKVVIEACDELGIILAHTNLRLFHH
structure (smiles),measurement,value
"CC1c2c(nc(N)[nH]c2=O)NCC1CCc1ccc(C(=O)NC(CCC(=O)O)C(=O)O)cc1 (stereo not drawn) [(5RS, 6RS) 2-{4-[2-(2-Amino-5-methyl-4-oxo-3,4,5,6,7,8-hexahydro-pyrido[2,3-d]pyrimidin-6-yl)-ethyl]-benzoylamino}-pentanedioic acid]",IC50,> 20 µM
